Assay results from ChEMBL document CHEMBL5154862, “Structure-Based Discovery of MDM2/4 Dual Inhibitors that Exert Antitumor Activities against MDM4-Overexpressing Cancer Cells” (J Med Chem, 2022).
Calls of active or inactive are those of the source. The rule behind the calls is not given here.

Key:
MCF7 [1] = test: cells; details: Homo sapiens, MCF7, 96 h
RKO [2] = test: Induction of apoptosis in human RKO cells assessed as viable cells at 6.25 uM measured after 48 hrs by Annexin V-FITC/PI staining based flow cytometry analysis (reference value: 93.54 %); assay type: functional; details: read-out: Activity
U2OS [3] = test: cells; details: Homo sapiens, 96 h
NCI-H460 = test: cells; details: Homo sapiens, NCI-H460, 96 h
HCT-116 [4] = test: Upregulation of p53 protein expression in human HCT-116 cells at 2.5 uM measured after 24 hrs by Western blot analysis; assay type: functional, cell-based
[5] = molecular target: Cyclin-dependent kinase inhibitor 1 (Homo sapiens) (UniProt P38936); test: Activation of p21 in human HCT-116 cells incubated for 24 hrs by Western blot analysis; assay type: cell-based; details: filed as activator, dose 0.078125-2.5 µM, DDE = dose-dependent effect
Chain of Cyclin-dependent kinase inhibitor 1 (Homo sapiens) (P38936 whole entry): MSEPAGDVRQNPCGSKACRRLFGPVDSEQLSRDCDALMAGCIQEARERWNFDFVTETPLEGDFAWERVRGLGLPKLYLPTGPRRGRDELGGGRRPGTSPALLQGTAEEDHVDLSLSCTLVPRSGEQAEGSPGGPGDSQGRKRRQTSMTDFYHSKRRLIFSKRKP

RKO [6] = test: Upregulation of p53 expression in human RKO cells incubated for 24 hrs by Western blot analysis; assay type: functional, cell-based; details: dose 0.3125-2.5 µM, DDE = dose-dependent effect
RKO [7] = test: Induction of apoptosis in human RKO cells assessed as necrotic cells at 25 uM measured after 48 hrs by Annexin V-FITC/PI staining based flow cytometry analysis (reference value: 2.08 %); assay type: functional
MCF7 [8] = test: Upregulation of p53 protein expression in human MCF7 cells at 2.5 uM measured after 24 hrs by Western blot analysis; assay type: functional, cell-based
RKO [9] = test: Induction of apoptosis in human RKO cells assessed as late apoptotic cells at 25 uM measured after 48 hrs by Annexin V-FITC/PI staining based flow cytometry analysis (reference value: 0.82 %); assay type: functional
HCT-116 [10] = test: Upregulation of p21 protein expression in human HCT-116 cells at 2.5 uM measured after 24 hrs by Western blot analysis; assay type: functional, cell-based
U2OS [11] = test: Upregulation of MDM2 protein expression in human U2OS cells at 2.5 uM measured after 24 hrs by Western blot analysis; assay type: functional, cell-based
Homo sapiens = species: Homo sapiens; test: Potency index, ratio of RG7388 Ki to test compound Ki for displacement of 5-FAM labeled PDI peptide from MDM4 C17S mutant (14 to 111 residues) (unknown origin) expressed in Escherichia coli BL21 (DE3) assessed as inhibition constant incubated for 1.5 hrs by fluorescence polarization competition assay
HCT-116 [12] = test: Upregulation of MDM2 protein expression in human HCT-116 cells at 2.5 uM measured after 24 hrs by Western blot analysis; assay type: functional, cell-based
[13] = AUC in ICR mouse at 15 mg/kg, po measured upto 24 hrs by LC-MS/MS analysis; assay type: ADME, organism-based; parameters: time < 24 hrs, dose 15 mg/kg, route po; details: in vivo
RKO [14] = test: Induction of cell cycle arrest in human RKO cells assessed as effect on cell cycle distribution incubated for 24 hrs by FACSCalibur flow cytometry analysis; assay type: functional, cell-based; details: dose 6.25-25 µM, DDE = dose-dependent effect
RKO [15] = test: Downregulation of MDM4 expression in human RKO cells at 0.3125 to 2.5 uM incubated for 24 hrs by Western blot analysis; assay type: functional, cell-based; details: dose 0.3125-2.5 µM

Compound `COc1cc(C(=O)O)ccc1NC(=O)[C@@H]1N[C@@H](CC(C)(C)C)[C@](CNCc2ccncc2)(c2ccc(Cl)cc2F)[C@H]1c1cccc(Cl)c1F` has an IC50 (MCF7 [1]) of 520 nM, a viability at 6.25 µM (RKO [2]) of 74.5% and an IC50 (U2OS [3]) of 370 nM. The IC50 (NCI-H460) was 460 nM, the Activity (HCT-116 [4]) was “Active” and the Activity [5] was “Dde”. For the same compound, the Activity (RKO [6]) was “Dde”, the Activity (RKO [7]) was 1.31% and the Activity (MCF7 [8]) was “Active”. For the same compound, the Activity (RKO [9]) was 57.01%, the Activity (HCT-116 [10]) was “Active” and the Activity (U2OS [11]) was “Active”. The Ratio Ki (Homo sapiens) was 6, the Activity (HCT-116 [12]) was “Active” and the AUC at 24 h [13] was 1990 ng·h/mL. The Activity (RKO [14]) was “Dde” and the Activity (RKO [15]) was “Active”.
